Values after ≈ are worked out from the molar mass of the structure shown.
Key:
Type in all cases: cell-based
[1] = test system: Staphylococcus aureus ATCC 6538P; assay: In vitro agar dilution MIC, organism code AA; details: Table 1B, unit assumed
Description: (§1) Representative compounds of the present invention were assayed in vitro for antibacterial activity as follows: Twelve petri dishes containing successive aqueous dilutions of the test compound mixed with 10 mL of sterilized Brain Heart Infusion (BHI) agar (Difco 0418-01-5) were prepared. Each plate was inoculated with 1:100 (or 1:10 for slow-growing strains, such as Micrococcus and Streptococcus) dilutions of up to 32 different microorganisms, using a Steers replicator block. The inoculated plates were incubated at 35-37° C. for 20 to 24 hours. In addition, a control plate, using BHI agar containing no test compound, was prepared and incubated at the beginning and end of each test.
(§2) An additional plate containing a compound having known susceptibility patterns for the organisms being tested and belonging to the same antibiotic class as the test compound was also prepared and incubated as a further control, as well as to provide test-to-test comparability.
(§3) After incubation, each plate was visually inspected. The minimum inhibitory concentration (MIC) was defined as the lowest concentration of drug yielding no growth, a slight haze, or sparsely isolated colonies on the inoculum spot as compared to the growth control.

[2] = test system: Staphylococcus aureus A5177; assay: In vitro agar dilution MIC, organism code BB; details: Table 1B, in µg/mL (unit assumed)
Description: as §1, §2, §3

[3] = test system: Staphylococcus aureus A-5278; assay: In vitro agar dilution MIC, organism code CC; details: Table 1B, unit assumed
Description: as §1, §2, §3

[4] = test system: Staphylococcus aureus CMX 642A; assay: In vitro agar dilution MIC, organism code DD; details: Table 1B, unit assumed
Description: as §1, §2, §3

[5] = test system: Staphylococcus aureus NCTC10649M; assay: In vitro agar dilution MIC, organism code EE; details: Table 1B, unit assumed
Description: as §1, §2, §3

[6] = test system: Staphylococcus aureus CMX 553; assay: In vitro agar dilution MIC, organism code FF; details: Table 1B, unit assumed
Description: as §1, §2, §3

[7] = test system: Staphylococcus aureus 1775; assay: In vitro agar dilution MIC, organism code GG; details: Table 1B, unit assumed
Description: as §1, §2, §3

[8] = test system: Staphylococcus epidermidis 3519; assay: In vitro agar dilution MIC, organism code HH; details: Table 1B, in µg/mL (unit assumed)
Description: as §1, §2, §3

[9] = test system: Enterococcus faecium ATCC 8043; assay: In vitro agar dilution MIC, organism code II; details: Table 1B, unit assumed
Description: as §1, §2, §3

[10] = test system: Streptococcus bovis A-5169; assay: In vitro agar dilution MIC, organism code JJ; details: Table 1B, unit assumed
Description: as §1, §2, §3

[11] = test system: Streptococcus agalactiae CMX 508; assay: In vitro agar dilution MIC, organism code KK; details: Table 1B, unit assumed
Description: as §1, §2, §3

[12] = test system: Streptococcus pyogenes EES61; assay: In vitro agar dilution MIC, organism code LL; details: unit assumed
Description: as §1, §2, §3

[13] = test system: Streptococcus pyogenes 930; assay: In vitro agar dilution MIC, organism code MM; details: unit assumed
Description: as §1, §2, §3

[14] = test system: Streptococcus pyogenes PIU 2548; assay: In vitro agar dilution MIC, organism code NN; details: unit assumed
Description: as §1, §2, §3

[15] = test system: Micrococcus luteus ATCC 9341; assay: In vitro agar dilution MIC, organism code OO; details: Table 1B, unit assumed
Description: as §1, §2, §3

[16] = test system: Micrococcus luteus ATCC 4698; assay: In vitro agar dilution MIC, organism code PP; details: Table 1B, in µg/mL (unit assumed)
Description: as §1, §2, §3

Escherichia coli JUHL = assay: In vitro agar dilution MIC, organism code QQ; details: Table 1B, in µg/mL (unit assumed)
Description: as §1, §2, §3

Escherichia coli SS = assay: In vitro agar dilution MIC, organism code RR; details: Table 1B, in µg/mL (unit assumed)
Description: as §1, §2, §3

Escherichia coli DC-2 = assay: In vitro agar dilution MIC, organism code SS; details: Table 1B, unit assumed
Description: as §1, §2, §3

Candida albicans CCH 442 = assay: In vitro agar dilution MIC, organism code TT; details: Table 1B, unit assumed
Description: as §1, §2, §3

[17] = test system: Mycobacterium smegmatis ATCC 114; assay: In vitro agar dilution MIC, organism code UU; details: Table 1B, in µg/mL (unit assumed)
Description: as §1, §2, §3

[18] = test system: Nocardia asteroides ATCC 9970; assay: In vitro agar dilution MIC, organism code VV; details: Table 1B, in µg/mL (unit assumed)
Description: as §1
as §2, with “comparability. Erythromycin A was used for this purpose.” for “comparability.”
as §3

[19] = test system: Haemophilis influenzae DILL AMP R; assay: In vitro agar dilution MIC, organism code WW; details: unit assumed
Description: as §1, §2, §3

[20] = test system: Streptococcus pneumoniae ATCC 6303; assay: In vitro agar dilution MIC, organism code XX; details: unit assumed
Description: as §1, §2, §3

[21] = test system: Streptococcus pneumoniae GYR 1171; assay: In vitro agar dilution MIC, organism code YY; details: Table 1B, unit assumed
Description: as §1, §2, §3

[22] = test system: Streptococcus pneumoniae 5979; assay: In vitro agar dilution MIC, organism code ZZ; details: unit assumed
Description: as §1, §2, §3

[23] = test system: Streptococcus pneumoniae 5649; assay: In vitro agar dilution MIC, organism code ZZA; details: unit assumed
Description: as §1, §2, §3

Row | SMILES | MIC [1] [µg/mL] | MIC [2] | MIC [3] [µg/mL] | MIC [4] [µg/mL] | MIC [5] [µg/mL] | MIC [6] [µg/mL] | MIC [7] [µg/mL] | MIC [8] | MIC [9] [µg/mL] | MIC [10] [µg/mL] | MIC [11] [µg/mL] | MIC ([12]; Table 1B) [µg/mL] | MIC ([13]; Table 1B) [µg/mL] | MIC ([14]; Table 1B) [µg/mL] | MIC [15] [µg/mL] | MIC [16] | MIC (Escherichia coli JUHL) | MIC (Escherichia coli SS) | MIC (Escherichia coli DC-2) [µg/mL] | MIC (Candida albicans CCH 442) [µg/mL] | also measured
1 | CC[C@H]1OC(=O)[C@@](C)(F)C(=O)[C@H](C)[C@@H](O[C@@H]2O[C@H](C)C[C@H](N(C)C)[C@H]2O)[C@](C)(OC/C=C/c2ccccc2)C[C@@H](C)C(=O)[C@H](C)[C@H]2NC(=O)O[C@@]21C [Example 7] | 0.05 (≈ 0.0682 µM) | 0.05 | 100 (≈ 136 µM) | 0.05 (≈ 0.0682 µM) | 0.05 (≈ 0.0682 µM) | 0.05 (≈ 0.0682 µM) | 100 (≈ 136 µM) | 0.05 | 0.02 (≈ 0.0273 µM) | ≤ 0.005 | ≤ 0.005 | ≤ 0.005 | 25 (≈ 34.1 µM) | 0.05 (≈ 0.0682 µM) | ≤ 0.005 | 0.02 | 50 | 0.1 | 25 (≈ 34.1 µM) | > 100 | MIC ([12]; Table 1D): ≤ 0.04 µg/mL; MIC ([13]; Table 1D): 16 µg/mL (≈ 21.8 µM); MIC ([14]; Table 1D): 0.25 µg/mL (≈ 0.341 µM); MIC [17]: 0.05; MIC [18]: ≤ 0.005; MIC ([19]; Table 1B): 2 µg/mL (≈ 2.73 µM); MIC ([19]; Table 1D): 2 µg/mL (≈ 2.73 µM); MIC ([20]; Table 1B): ≤ 0.004 µg/mL; MIC ([20]; Table 1D): ≤ 0.04 µg/mL; MIC [21]: ≤ 0.004 µg/mL; MIC ([22]; Table 1B): 64 µg/mL (≈ 87.3 µM); MIC ([22]; Table 1D): 64 µg/mL (≈ 87.3 µM); MIC ([23]; Table 1B): 0.25 µg/mL (≈ 0.341 µM); MIC ([23]; Table 1D): 0.25 µg/mL (≈ 0.341 µM)
2 | CC[C@H]1OC(=O)[C@@](C)(F)C(=O)[C@H](C)[C@@H](O[C@@H]2O[C@H](C)C[C@H](N(C)C)[C@H]2O)[C@](C)(OC/C=C/c2cnc3ccc(NC(=O)OC(C)(C)C)cc3c2)C[C@@H](C)C(=O)[C@H](C)[C@H]2NC(=O)O[C@@]21C [Example 8] | 0.39 (≈ 0.434 µM) | 0.39 | > 100 | 0.39 (≈ 0.434 µM) | 0.39 (≈ 0.434 µM) | 0.39 (≈ 0.434 µM) | > 100 | 0.39 | 0.2 (≈ 0.222 µM) | 0.05 (≈ 0.0556 µM) | 0.05 (≈ 0.0556 µM) | 0.05 (≈ 0.0556 µM) | 12.5 (≈ 13.9 µM) | 0.39 (≈ 0.434 µM) | 0.05 (≈ 0.0556 µM) | 0.39 | > 100 | 6.2 | > 100 | > 100 | MIC [17]: 0.78; MIC [18]: 0.78; MIC ([19]; Table 1B): 16 µg/mL (≈ 17.8 µM); MIC ([20]; Table 1B): 0.06 µg/mL (≈ 0.0667 µM); MIC [21]: 0.06 µg/mL (≈ 0.0667 µM); MIC ([22]; Table 1B): 16 µg/mL (≈ 17.8 µM); MIC ([23]; Table 1B): 1 µg/mL (≈ 1.11 µM)
3 | CC[C@H]1OC(=O)[C@@](C)(F)C(=O)[C@H](C)[C@@H](O[C@@H]2O[C@H](C)C[C@H](N(C)C)[C@H]2O)[C@](C)(OC/C=C/c2cnc3ccc(N)cc3c2)C[C@@H](C)C(=O)[C@H](C)[C@H]2NC(=O)O[C@@]21C [Example 9] | 0.02 (≈ 0.025 µM) | 0.02 | > 100 | 0.02 (≈ 0.025 µM) | 0.05 (≈ 0.0626 µM) | 0.02 (≈ 0.025 µM) | > 100 | 0.02 | 0.01 (≈ 0.0125 µM) | ≤ 0.005 | ≤ 0.005 | ≤ 0.005 | 0.2 (≈ 0.25 µM) | 0.1 (≈ 0.125 µM) | ≤ 0.005 | 0.02 | 25 | 0.2 | 25 (≈ 31.3 µM) | > 100 | MIC [17]: 0.78; MIC [18]: < 0.005; MIC ([19]; Table 1B): 2 µg/mL (≈ 2.5 µM); MIC ([20]; Table 1B): 0.015 µg/mL (≈ 0.0188 µM); MIC [21]: 0.015 µg/mL (≈ 0.0188 µM); MIC ([22]; Table 1B): 0.25 µg/mL (≈ 0.313 µM); MIC ([23]; Table 1B): 1 µg/mL (≈ 1.25 µM)
4 | CC[C@H]1OC(=O)[C@@](C)(F)C(=O)[C@H](C)[C@@H](O[C@@H]2O[C@H](C)C[C@H](N(C)C)[C@H]2O)[C@](C)(OC/C=C/c2ccc3ncccc3c2)C[C@@H](C)C(=O)[C@H](C)[C@H]2NC(=O)O[C@@]21C [Example 10] | 0.1 (≈ 0.128 µM) | 0.1 | > 100 | 0.1 (≈ 0.128 µM) | 0.1 (≈ 0.128 µM) | 0.1 (≈ 0.128 µM) | > 100 | 0.2 | 0.05 (≈ 0.0638 µM) | 0.01 (≈ 0.0128 µM) | 0.05 (≈ 0.0638 µM) | 0.02 (≈ 0.0255 µM) | 0.39 (≈ 0.497 µM) | 0.1 (≈ 0.128 µM) | 0.02 (≈ 0.0255 µM) | 0.1 | 100 | 0.1 | 100 (≈ 128 µM) | > 100 | MIC [17]: 0.1; MIC [18]: 0.01; MIC ([19]; Table 1B): 2 µg/mL (≈ 2.55 µM); MIC ([20]; Table 1B): 0.015 µg/mL (≈ 0.0191 µM); MIC [21]: 0.015 µg/mL (≈ 0.0191 µM); MIC ([22]; Table 1B): 0.25 µg/mL (≈ 0.319 µM); MIC ([23]; Table 1B): 0.25 µg/mL (≈ 0.319 µM)
